Assay results published in US6664241B2, “Water-soluble amide derivatives of polyene macrolides and preparation and uses thereof” (Micrologix Biotech Inc., priority 2000, dated 2003).
In brackets after ≈: the same amount, converted by molar mass.

What was measured:
C. albicans [1] = test: 5 day kidney bioburden evaluation in immunocompetent mice challenged with C. albicans; assay type: in vivo, Swiss-Webster mice; settings: Candida albicans, ip, 120 h; intraperitoneally once daily for 5 days, immunocompetent mice, C. albicans; 50% of animals with 2 log10 reduction in kidney CFU; read-out: ED50 mice 5 day
Protocol: (§1) A variety of the compounds synthesized as described in Section 5, supra, were tested in various in vivo assays, as described below. The results of the various assays are provided in TABLE 3, presented at the end of this section. In all of the in vivo assays described, the test compounds, in the form of the aspartate salts, were formulated in an aqueous vehicle (5% mannitol in sterile water; OSMITROL, Baxter Healthcare, Deerfield, Ill.), followed by appropriate dilutions. The formulations were prepared fresh before dosing.
(§2) AmB and AME were also tested for comparison. For AmB, the commercially available FUNGIZONE (Bristol-Meyers Squibb Co.) was used. Reported values are based upon the weight of the AmB active ingredient, not on the basis of the weight of the FUNGIZONE powder. AME was formulated in OSMITROL as described for the test compounds.
Various polyene macrolide amide derivatives of the invention were evaluated for their protective effect when administered intraperitoneally once daily for 5 days to immunocompetent mice challenged with live C. albicans.
C. albicans was grown on Sabouraud dextrose agar (SDA) plates for 48 hr. Colonies were harvested and washed twice by centrifugation in phosphate-buffered saline (PBS). The washed pellets were resuspended in PBS and diluted to achieve the desired number of fungi per milliliter. A portion of the inoculum was plated on SDA plates to determine the colony-forming units (CFU) per milliliter.
Swiss-Webster mice (Simonsen Laboratories, Gilroy, Calif.) were administered by intravenous injection a single inoculum (0.2 mL) containing as estimated 2.0×10^5 CFU of C. albicans. The day of inoculation was designated as study day 0. Beginning three days after injection, mice were treated intraperitoneally with vehicle alone or formulated test compound once daily for 5 consecutive days.
The mice were observed daily from study day 0 through study day 10 (3 days after the last dose). Mice found dead or euthanized in extremis were removed from the study without further processing. Surviving mice were euthanized by inhalation of CO2 on study day 10 and both kidneys from each mouse were removed. Each pair of removed kidneys was homogenized in 3 mL of ice-cold PBS containing 10% glycerol. A portion of each homogenate was used to determine log10 CFU per kidney using SDA plates (48 hours of incubation at 30° C.). Kidney log10 CFU data were analyzed using a t-test. The criterion for a statistically significant response was set at p<0.01.
For comparison, the results for AmB and AME are also provided. Efficacy was defined for individual animals as a greater than 2 log10 reduction in kidney CFU relative to the mean vehicle control value.

C. albicans [2] = test: Minimum Inhibitory Concentrations (MICs) against C. albicans, NCCLS M27-A broth dilution; assay type: cell-based; settings: Candida albicans, read-out: MIC
Protocol: For each compound synthesized, Minimum Inhibitory Concentrations (MICs) against C. albicans were determined as described in Reference Method for Broth Dilution Antifungal Susceptibility Testing of Yeasts, Approved Standard, NCCLS document M27-A (ISBN 1-56238-328-0), NCCLS, 940 West Valley Road, Suite 1400, Wayne, Pa. 19087, 1997.

[3] = Maximum non-lethal dose (NLD), single intravenous dose in mice; assay type: in vivo, Swiss-Webster male mice; settings: test compounds as aspartate salts in 5% mannitol, AmB as FUNGIZONE
Protocol: as §1, §2
Maximum non-lethal dose (NLD) data were obtained for selected compounds. A single intravenous dose was administered to each of four mice (Swiss-Webster male mice; Simonsen Laboratories, Gilroy, Calif.) in several groups. The doses selected were based upon the NLDs of compounds of similar structures. After review of findings, higher or lower doses were administered and a NLD was determined. The results are tabulated in TABLE 3, below (NLD Acute Mice). The values for AmB and AME are provided for comparison

[4] = Two week range-finding toxicity study in mice; assay type: in vivo, CD-1 mice; settings: both sexes, CD-1, mouse, in vivo, iv
Protocol: as §1, §2
Various polyene macrolide amide derivatives of the invention were evaluated to characterize their potential toxicity when administered subchronically by intravenous injection.
CD-1® mice (Charles River Laboratories, Portage, Mich.) were acclimated to laboratory conditions for at least 5 days before the start of dosing. During the acclimation period, the general condition of the mice was evaluated, and those considered healthy were used. The mice were randomly assigned to treatment groups using a stratified body weight regimen. Each treatment group consisted of 3 male and 3 female mice. The mice were housed in a room with a controlled environment and provided rodent chow and water ad libitum.
On the first day of dosing, the mice were approximately 7 to 9 weeks old and weighed 22 to 30 g. Doses were administered by intravenous injection once daily on study days 1 to 5 and 8 to 12. Dosages were selected based upon data from efficacy and toxicology studies, and ranged from 1.25 to 30 mg/kg/day. Clinical observations were recorded 0.5 hr after dosing on days 1, 3, 5, 8, 10, 12 and 15, and on any day a change was observed. Body weights were recorded prior to dosing and on study days 8 and 12, and on study day 15 at the completion of the in-life phase of the study.
Animals that were found in a moribund/deteriorating clinical state were euthanized (animal designated killed in extremis) by inhalation of CO2. The day of death for any animal found dead or killed in extremis was recorded. Any animal that died prematurely was removed from the study without further processing.
One day after completion of dosing (study day 16), all surviving mice were euthanized by inhalation of CO2. Their kidneys were preserved for histopathologic examination. The maximum no-observed-adverse-effect level (NOAEL) was determined on the basis of clinical and histopathologic findings. The values for AmB and AME are provided for comparison.

SMILES	ED50 (C. albicans [1])	MIC (C. albicans [2])	NLD acute mice [3]	NOAEL at 2 week ([4]; NOAEL 2 week mice clinical)	NOAEL at 2 week ([4]; NOAEL 2 week mice histological)
CC1[C@H](C)OC(=O)C[C@H](O)C[C@H](O)CC[C@@H](O)[C@H](O)C[C@H](O)C[C@]2(O)C[C@H](O)C(C(=O)NCC(O)C(O)C(O)C(O)CO)C(C[C@@H](OC3O[C@H](C)[C@@H](O)[C@H](NC[C@@]4(O)OC[C@@H](O)[C@@H](O)[C@@H]4O)[C@@H]3O)/C=C/C=C/C=C/C=C/C=C/C=C/C=C/[C@H](C)[C@H]1O)O2 (stereo partly drawn) [Compound 103]	15 mg/kg	1.1 µg/mL (≈ 0.88 µM)	10 mg/kg	–	–
CC1[C@H](C)OC(=O)C[C@H](O)C[C@H](O)CC[C@@H](O)[C@H](O)C[C@H](O)C[C@]2(O)C[C@H](O)C(C(=O)N3CCN(C)CC3)C(C[C@@H](OC3O[C@H](C)[C@@H](O)[C@H](NC[C@@]4(O)OC[C@@H](O)[C@@H](O)[C@@H]4O)[C@@H]3O)/C=C/C=C/C=C/C=C/C=C/C=C/C=C/[C@H](C)[C@H]1O)O2 (stereo partly drawn) [Compound 106]	3 mg/kg	2 µg/mL (≈ 1.71 µM)	<15 mg/kg	3 mg/kg	6 mg/kg
CC1[C@H](C)OC(=O)C[C@H](O)C[C@H](O)CC[C@@H](O)[C@H](O)C[C@H](O)C[C@]2(O)C[C@H](O)C(C(=O)N3CCN(c4ccccc4)CC3)C(C[C@@H](OC3O[C@H](C)[C@@H](O)[C@H](NC[C@@]4(O)OC[C@@H](O)[C@H](O)[C@@H]4O)[C@@H]3O)/C=C/C=C/C=C/C=C/C=C/C=C/C=C/[C@H](C)[C@H]1O)O2 (stereo partly drawn) [Compound 136]	40.2 mg/kg	0.4 µg/mL (≈ 0.325 µM)	>15 mg/kg	–	–
CC1[C@H](C)OC(=O)C[C@H](O)C[C@H](O)CC[C@@H](O)[C@H](O)C[C@H](O)C[C@]2(O)C[C@H](O)C(C(=O)N3CCN(CCO)CC3)C(C[C@@H](OC3O[C@H](C)[C@@H](O)[C@H](NC[C@@]4(O)OC[C@@H](O)[C@H](O)[C@@H]4O)[C@@H]3O)/C=C/C=C/C=C/C=C/C=C/C=C/C=C/[C@H](C)[C@H]1O)O2 (stereo partly drawn) [Compound 135]	1.6 mg/kg	6.3 µg/mL (≈ 5.26 µM)	10 mg/kg	1.25 mg/kg	> 5 mg/kg
CC1[C@H](C)OC(=O)C[C@H](O)C[C@H](O)CC[C@@H](O)[C@H](O)C[C@H](O)C[C@]2(O)C[C@H](O)C(C(=O)NCCCN3CCOCC3)C(C[C@@H](OC3O[C@H](C)[C@@H](O)[C@H](NC[C@@]4(O)OC[C@@H](O)[C@H](O)[C@@H]4O)[C@@H]3O)/C=C/C=C/C=C/C=C/C=C/C=C/C=C/[C@H](C)[C@H]1O)O2 (stereo partly drawn) [Compound 111]	7 mg/kg	2.7 µg/mL (≈ 2.23 µM)	20 mg/kg	< 7 mg/kg	7 mg/kg
CC1[C@H](C)OC(=O)C[C@H](O)C[C@H](O)CC[C@@H](O)[C@H](O)C[C@H](O)C[C@]2(O)C[C@H](O)C(C(=O)N3CCN(Cc4ccccc4)CC3)C(C[C@@H](OC3O[C@H](C)[C@@H](O)[C@H](NC[C@@]4(O)OC[C@@H](O)[C@H](O)[C@@H]4O)[C@@H]3O)/C=C/C=C/C=C/C=C/C=C/C=C/C=C/[C@H](C)[C@H]1O)O2 (stereo partly drawn) [Compound 134]	> 30 mg/kg	1 µg/mL (≈ 0.804 µM)	30 mg/kg	–	–
CC1[C@H](C)OC(=O)C[C@H](O)C[C@H](O)CC[C@@H](O)[C@H](O)C[C@H](O)C[C@]2(O)C[C@H](O)C(C(=O)N3CCN(C)CC3)C(C[C@@H](OC3O[C@H](C)[C@@H](O)[C@H](NC[C@@]4(O)OC[C@@H](O)[C@H](O)[C@@H]4O)[C@@H]3O)/C=C/C=C/C=C/C=C/C=C/C=C/C=C/[C@H](C)[C@H]1O)O2 (stereo partly drawn) [Compound 113]	2 mg/kg	3.3 µg/mL (≈ 2.82 µM)	7.5 mg/kg	> 5 mg/kg	1.25 mg/kg
CC1[C@H](C)OC(=O)C[C@H](O)C[C@H](O)CC[C@@H](O)[C@H](O)C[C@H](O)C[C@]2(O)C[C@H](O)C(C(=O)NCC(O)C(O)C(O)C(O)CO)C(C[C@@H](OC3O[C@H](C)[C@@H](O)[C@H](NC[C@@]4(O)OC[C@@H](O)[C@H](O)[C@@H]4O)[C@@H]3O)/C=C/C=C/C=C/C=C/C=C/C=C/C=C/[C@H](C)[C@H]1O)O2 (stereo partly drawn) [Compound 110]	15 mg/kg	1 µg/mL (≈ 0.8 µM)	10 mg/kg	–	–
CC1[C@H](C)OC(=O)C[C@H](O)C[C@H](O)CC[C@@H](O)[C@H](O)C[C@H](O)C[C@]2(O)C[C@H](O)C(C(=O)N3CCOCC3)C(C[C@@H](OC3O[C@H](C)[C@@H](O)[C@H](NC[C@@]4(O)OC[C@@H](O)[C@@H](O)[C@@H]4O)[C@@H]3O)/C=C/C=C/C=C/C=C/C=C/C=C/C=C/[C@H](C)[C@H]1O)O2 (stereo partly drawn) [Compound 131]	–	4 µg/mL (≈ 3.46 µM)	5 mg/kg	–	–
CC1[C@H](C)OC(=O)C[C@H](O)C[C@H](O)CC[C@@H](O)[C@H](O)C[C@H](O)C[C@]2(O)C[C@H](O)C(C(=O)N[C@@H]3C(O)O[C@H](CO)[C@@H](O)[C@@H]3O)C(C[C@@H](OC3O[C@H](C)[C@@H](O)[C@H](N)[C@@H]3O)/C=C/C=C/C=C/C=C/C=C/C=C/C=C/[C@H](C)[C@H]1O)O2 (stereo partly drawn) [Compound 125]	–	1 µg/mL (≈ 0.921 µM)	8 mg/kg	–	–
CC1[C@H](C)OC(=O)C[C@H](O)C[C@H](O)CC[C@@H](O)[C@H](O)C[C@H](O)C[C@]2(O)C[C@H](O)C(C(=O)NCCN3CCCCC3)C(C[C@@H](OC3O[C@H](C)[C@@H](O)[C@H](NC[C@@]4(O)OC[C@@H](O)[C@@H](O)[C@@H]4O)[C@@H]3O)/C=C/C=C/C=C/C=C/C=C/C=C/C=C/[C@H](C)[C@H]1O)O2 (stereo partly drawn) [Compound 107]	28 mg/kg	2 µg/mL (≈ 1.67 µM)	>40 mg/kg	–	–
CCN1CCN(C(=O)C2C3C[C@@H](OC4O[C@H](C)[C@@H](O)[C@H](NC[C@@]5(O)OC[C@@H](O)[C@H](O)[C@@H]5O)[C@@H]4O)/C=C/C=C/C=C/C=C/C=C/C=C/C=C/[C@H](C)[C@@H](O)C(C)[C@H](C)OC(=O)C[C@H](O)C[C@H](O)CC[C@@H](O)[C@H](O)C[C@H](O)C[C@](O)(C[C@@H]2O)O3)CC1 (stereo partly drawn) [Compound 133]	4.1 mg/kg	–	15 mg/kg	< 5 mg/kg	–
